In patent US11109593B2, “Isoxazolin-5-one derivative and herbicide containing same as active ingredient” (HOKKO CHEMICAL INDUSTRY CO., LTD., priority 2017, dated 2021):

How the values were obtained:
Type in all cases: in vivo
[1] = tested on: Chenopodium album; assay: Test Example 4: herbicidal effect test by treatment of leave and stem in dry field farming (seven days after seeding); conditions: 120 g/10a active ingredient, emulsion sprayed seven days after seeding, evaluated 14 days after treatment
Summary of the method: (§1)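 Duplicate pots were scored 14 days post-spray by dry weight, herbicidal rate = {1 − treated/untreated average dry weight} × 100. The water-diluted emulsion, equivalent to 120 g active ingredient per 10 ares in 100 L, was applied seven days after sowing 20 seeds each into the upper 1 cm of alluvial soil.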

[2] = tested on: Echinochloa crus-galli; assay: as above; conditions: 120 g/10a active ingredient, emulsion sprayed seven days after seeding, evaluated 14 days after treatment
Summary of the method: as §1

[3] = tested on: Amaranthus viridis; assay: as above; conditions: 120 g/10a active ingredient, emulsion sprayed seven days after seeding, evaluated 14 days after treatment
Summary of the method: as §1

[4] = tested on: southern crabgrass; assay: as above; conditions: 120 g/10a active ingredient, emulsion sprayed seven days after seeding, evaluated 14 days after treatment
Summary of the method: as §1

[5] = tested on: broad leaf weeds (Lindernia pyxidaria and Monochoria vaginalis); assay: Test Example 1: herbicidal effect test by treatment of rice paddy soil (immediately after seeding); conditions: 120 g/10a active ingredient, dry weight vs untreated area, 14 days after treatment; for pest or weed control at 1200 g/ha: 336 h
Summary of the method: (§2)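 Application occurs immediately after seeding, with diluted emulsion added to paddy water (about 3 cm deep) over puddled, fertilized soil at 120 g active ingredient per 10 ares. Herbicidal rate is calculated from mean dry weight against untreated controls 14 days later.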

[6] = tested on: Echinochloa crus-galli; assay: as above; conditions: 120 g/10a active ingredient, dry weight vs untreated area, 14 days after treatment
Summary of the method: as §2

[7] = tested on: Scirpus juncoides; assay: as above; conditions: 120 g/10a active ingredient, dry weight vs untreated area, 14 days after treatment
Summary of the method: as §2

[8] = tested on: Chenopodium album; assay: Test Example 3: herbicidal effect test by treatment of dry field farming soil (one day after seeding); conditions: 120 g/10a active ingredient, evaluated 14 days after treatment
Summary of the method: (§3)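 Seeds (20 each) mixed into top 1 cm of alluvium in pots, surface pressed. One day later, diluted emulsion sprayed onto soil, 100 L/10 a, 120 g a.i./10 a. Dry weight at 14 d vs untreated gave % herbicidal rate; n=2.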

[9] = tested on: Echinochloa crus-galli; assay: as above; conditions: 120 g/10a active ingredient, evaluated 14 days after treatment
Summary of the method: as §3

[10] = tested on: Amaranthus viridis; assay: as above; conditions: 120 g/10a active ingredient, evaluated 14 days after treatment
Summary of the method: as §3

[11] = tested on: southern crabgrass; assay: as above; conditions: 120 g/10a active ingredient, evaluated 14 days after treatment
Summary of the method: as §3

[12] = tested on: broad leaf weeds (Lindernia pyxidaria and Monochoria vaginalis); assay: Test Example 2: herbicidal effect test by treatment during growing period in paddy rice cultivation (seven days after seeding); conditions: 120 g/10a active ingredient, assessed 14 days after treatment, dry weight vs untreated area; for pest or weed control at 1200 g/ha: 336 h
Summary of the method: (§4)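 Herbicidal rate = (1 − treated/untreated mean dry weight) × 100, scored 14 days after application, two replicates per rate. Treatment: diluted emulsion dropped onto paddy water seven days after sowing, 120 g active ingredient per 10 ares, in a glass greenhouse.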

[13] = tested on: Echinochloa crus-galli; assay: as above; conditions: 120 g/10a active ingredient, assessed 14 days after treatment, dry weight vs untreated area
Summary of the method: as §4

[14] = tested on: Scirpus juncoides; assay: as above; conditions: 120 g/10a active ingredient, assessed 14 days after treatment, dry weight vs untreated area
Summary of the method: as §4

Structure (SMILES) | herbicidal effect (herbicidal rate), Chenopodium album [1] [%] | herbicidal effect (herbicidal rate), Echinochloa crus-galli [2] [%] | herbicidal effect (herbicidal rate), Amaranthus viridis [3] [%] | herbicidal effect (herbicidal rate), southern crabgrass [4] [%] | Herbicidal rate (%) Lindernia pyxidaria ([5]; Lindernia pyxidaria) [%] | Herbicidal rate (%) Monochoria vaginalis ([5]; Monochoria vaginalis) [%] | Herbicidal rate (%) Echinochloa crus-galli [6] [%] | Herbicidal rate (%) Scirpus juncoides [7] [%] | herbicidal rate, Chenopodium album [8] [%] | herbicidal rate, Echinochloa crus-galli [9] [%] | herbicidal rate, Amaranthus viridis [10] [%] | herbicidal rate, southern crabgrass [11] [%] | Herbicidal rate (%) Lindernia pyxidaria ([12]; Lindernia pyxidaria) [%] | Herbicidal rate (%) Monochoria vaginalis ([12]; Monochoria vaginalis) [%] | Herbicidal rate (%) Echinochloa crus-galli [13] [%] | Herbicidal rate (%) Scirpus juncoides [14] [%] | further results
CCC(C)n1oc(=O)c(Cc2ccccc2N(C(=O)c2ccccn2)S(=O)(=O)C(F)(F)F)c1C (stereo not drawn) [Compound 1-528] | 40 | 90 | 40 | 90 | 90 | 90 | 90 | 90 | 90 | 90 | 90 | 90 | 90 | 90 | 90 | 90 | –
CCC(CC)Cn1oc(=O)c(Cc2ccccc2NS(=O)(=O)C(F)(F)F)c1C [Compound 1-113] | 40 | 80 | 60 | 60 | 100 | 100 | 100 | 100 | 100 | 90 | 80 | 90 | 60 | 80 | 90 | 90 | –
Cc1c(Cc2ccccc2N(S(=O)(=O)C(F)(F)F)S(=O)(=O)C(F)(F)F)c(=O)on1CCC(C)C [Compound 1-974] | 40 | 90 | 40 | 50 | 90 | 80 | 100 | 90 | 100 | 90 | 100 | 90 | 90 | 90 | 100 | 90 | –
CCCC(CC)n1oc(=O)c(Cc2ccccc2NS(=O)(=O)C(F)(F)F)c1C (stereo not drawn) [Compound 1-110] | 50 | 90 | 60 | 90 | 100 | 100 | 100 | 100 | 80 | 90 | 80 | 90 | 80 | 100 | 100 | 80 | –
Cc1c(Cc2ccccc2NS(=O)(=O)C(F)(F)F)c(=O)on1CC(C)C [Compound 1-105, 1,1,1-trifluoro-N-[2-[(2-isobutyl-3-methyl-5-oxoisoxazol-4-yl)methyl]phenyl]methanesulfonamide] | – | – | – | – | – | – | – | – | – | – | – | – | – | – | – | – | pest or weed control at 1200 g/ha ([1]; Chenopodium album, 336 h, read-out: herbicidal effect (herbicidal rate), Chenopodium album): 40%; pest or weed control at 1200 g/ha ([2]; Echinochloa crus-galli, 336 h, read-out: herbicidal effect (herbicidal rate), Echinochloa crus-galli): 90%; pest or weed control at 1200 g/ha ([3]; Amaranthus viridis, 336 h, read-out: herbicidal effect (herbicidal rate), Amaranthus viridis): 50%; pest or weed control at 1200 g/ha ([4]; Digitaria ciliaris, 336 h, read-out: herbicidal effect (herbicidal rate), southern crabgrass): 50%; pest or weed control at 1200 g/ha ([5]; Monochoria vaginalis, read-out: Herbicidal rate (%) Monochoria vaginalis): 100%; pest or weed control at 1200 g/ha ([5]; in Lindernia, Lindernia pyxidaria, read-out: Herbicidal rate (%) Lindernia pyxidaria): 100%; pest or weed control at 1200 g/ha ([6]; in Echinochloa crus-galli, 336 h, read-out: Herbicidal rate (%) Echinochloa crus-galli): 90%; pest or weed control at 1200 g/ha ([7]; in Schoenoplectiella juncoides, 336 h, read-out: Herbicidal rate (%) Scirpus juncoides): 90%; pest or weed control at 1200 g/ha ([8]; Chenopodium album, 336 h, read-out: herbicidal rate, Chenopodium album): 50%; pest or weed control at 1200 g/ha ([9]; Echinochloa crus-galli, 336 h, read-out: herbicidal rate, Echinochloa crus-galli): 60%; pest or weed control at 1200 g/ha ([10]; Amaranthus viridis, 336 h, read-out: herbicidal rate, Amaranthus viridis): 70%; pest or weed control at 1200 g/ha ([11]; Digitaria ciliaris, 336 h, read-out: herbicidal rate, southern crabgrass): 90%; pest or weed control at 1200 g/ha ([12]; Lindernia pyxidaria, read-out: herbicidal rate (%) Lindernia pyxidaria): 90%; pest or weed control at 1200 g/ha ([12]; Monochoria vaginalis, read-out: herbicidal rate (%) Monochoria vaginalis): 90%; pest or weed control at 1200 g/ha ([13]; Echinochloa crus-galli, 336 h, read-out: herbicidal rate (%) Echinochloa crus-galli): 90%; pest or weed control at 1200 g/ha ([14]; Schoenoplectiella juncoides, 336 h, read-out: herbicidal rate (%) Scirpus juncoides): 90%
CCCCC(CC)Cn1oc(=O)c(Cc2ccccc2N(S(=O)(=O)C(F)(F)F)S(=O)(=O)C(F)(F)F)c1C (stereo not drawn) [Compound 1-980] | 40 | 60 | 40 | 40 | 100 | 80 | 100 | 90 | 40 | 40 | 40 | 60 | 80 | 80 | 100 | 80 | –
